Patent US20220152188A1, “TLR4-TLR7 LIGAND FORMULATIONS AS VACCINE ADJUVANTS” (The Regents of the University of California, priority 2019, published 2022)

Experiments:
Type in all cases: cell-based
Settings in all cases: Compound 1 = 100
IL-8 = test: IL-8, human (Tables 1-3)
TLR4 [1] = molecular target: T1, TLR4 (Mus musculus, UniProt Q9JHF9+Q9QUK6); test: TLR4, mouse (Tables 1-3)
T1 sequence (Q9QUK6 26-835): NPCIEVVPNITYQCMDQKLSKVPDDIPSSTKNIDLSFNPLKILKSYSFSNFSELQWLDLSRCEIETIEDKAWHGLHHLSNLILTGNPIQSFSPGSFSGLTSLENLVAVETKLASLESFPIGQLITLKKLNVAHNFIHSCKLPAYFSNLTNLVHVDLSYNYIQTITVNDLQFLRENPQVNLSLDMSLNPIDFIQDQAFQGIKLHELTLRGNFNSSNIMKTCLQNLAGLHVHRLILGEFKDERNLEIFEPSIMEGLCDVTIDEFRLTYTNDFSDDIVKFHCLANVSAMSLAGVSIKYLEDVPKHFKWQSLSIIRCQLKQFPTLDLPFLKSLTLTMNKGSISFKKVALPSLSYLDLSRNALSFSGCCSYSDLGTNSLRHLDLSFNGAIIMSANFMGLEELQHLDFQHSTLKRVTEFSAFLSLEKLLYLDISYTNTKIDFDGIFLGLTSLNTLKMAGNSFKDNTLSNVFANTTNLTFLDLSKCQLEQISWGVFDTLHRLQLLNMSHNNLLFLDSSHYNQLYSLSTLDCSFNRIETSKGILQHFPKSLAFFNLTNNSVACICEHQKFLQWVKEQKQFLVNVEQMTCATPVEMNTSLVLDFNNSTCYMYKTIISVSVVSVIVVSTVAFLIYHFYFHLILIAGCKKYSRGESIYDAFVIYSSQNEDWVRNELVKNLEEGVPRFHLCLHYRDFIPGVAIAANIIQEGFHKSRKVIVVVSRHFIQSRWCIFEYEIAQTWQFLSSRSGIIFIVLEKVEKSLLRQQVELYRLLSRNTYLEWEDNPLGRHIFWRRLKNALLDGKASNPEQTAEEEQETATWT
T1 sequence (Q9JHF9 19-160): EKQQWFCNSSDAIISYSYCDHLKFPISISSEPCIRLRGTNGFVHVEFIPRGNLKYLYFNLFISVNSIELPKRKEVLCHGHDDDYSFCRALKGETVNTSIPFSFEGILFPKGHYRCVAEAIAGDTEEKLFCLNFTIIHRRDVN

TLR4 [2] = molecular target: TLR4 (Homo sapiens, UniProt O00206+Q9Y6Y9); test: TLR4, human (Tables 1-3)
IP-10 = test: IP-10, mouse (Tables 1-3)
IL-6 = test: IL-6, mouse (Tables 1-3)
[3] = Table 1, R^3 series, footnotes not given
Also: test concentration or dose not given here.

Sequence of TLR4 (Homo sapiens, UniProt O00206+Q9Y6Y9) (O00206 24-839): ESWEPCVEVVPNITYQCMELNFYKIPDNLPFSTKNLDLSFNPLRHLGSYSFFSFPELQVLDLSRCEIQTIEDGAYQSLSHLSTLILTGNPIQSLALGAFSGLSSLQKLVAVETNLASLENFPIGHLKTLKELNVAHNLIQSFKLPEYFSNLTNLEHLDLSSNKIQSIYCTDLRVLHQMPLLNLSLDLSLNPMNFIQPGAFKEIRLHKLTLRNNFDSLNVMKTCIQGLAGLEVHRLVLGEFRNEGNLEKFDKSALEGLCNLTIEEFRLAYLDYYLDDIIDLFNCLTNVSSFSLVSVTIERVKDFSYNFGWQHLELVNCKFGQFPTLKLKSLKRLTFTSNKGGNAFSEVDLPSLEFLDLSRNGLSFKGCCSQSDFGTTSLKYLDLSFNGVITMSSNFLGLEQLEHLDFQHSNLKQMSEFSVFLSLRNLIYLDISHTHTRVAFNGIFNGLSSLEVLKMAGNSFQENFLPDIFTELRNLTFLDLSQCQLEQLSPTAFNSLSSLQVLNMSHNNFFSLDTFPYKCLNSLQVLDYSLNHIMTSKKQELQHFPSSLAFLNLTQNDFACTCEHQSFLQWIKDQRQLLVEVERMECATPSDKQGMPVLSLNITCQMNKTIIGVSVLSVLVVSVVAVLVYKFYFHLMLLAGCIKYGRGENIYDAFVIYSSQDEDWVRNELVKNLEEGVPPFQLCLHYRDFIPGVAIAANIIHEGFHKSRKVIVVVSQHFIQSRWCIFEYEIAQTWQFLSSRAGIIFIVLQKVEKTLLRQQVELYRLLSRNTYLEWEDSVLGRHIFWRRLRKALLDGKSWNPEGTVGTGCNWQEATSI
Sequence of TLR4 (Homo sapiens, UniProt O00206+Q9Y6Y9) (Q9Y6Y9 17-160 limits assumed): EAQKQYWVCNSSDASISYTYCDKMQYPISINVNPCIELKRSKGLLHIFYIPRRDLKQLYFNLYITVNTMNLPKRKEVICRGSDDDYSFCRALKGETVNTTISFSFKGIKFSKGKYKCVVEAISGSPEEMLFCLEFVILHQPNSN

Row | Compound | human IL-8 (IL-8; Table 1, R^3 series) | human IL-8 (IL-8; Table 2, R^2 series) | human IL-8 (IL-8; Table 3, R^1 series) | mouse TLR4 (TLR4 [1]; Table 1, R^3 series) | mouse TLR4 (TLR4 [1]; Table 2, R^2 series) | mouse TLR4 (TLR4 [1]; Table 3, R^1 series) | human TLR4 (TLR4 [2]; Table 1, R^3 series) | human TLR4 (TLR4 [2]; Table 2, R^2 series) | human TLR4 (TLR4 [2]; Table 3, R^1 series) | mouse IP-10 (IP-10; Table 1, R^3 series) | mouse IP-10 (IP-10; Table 2, R^2 series) | mouse IP-10 (IP-10; Table 3, R^1 series) | mouse IL-6 (IL-6; [3]) | mouse IL-6 (IL-6; Table 2, R^2 series) | mouse IL-6 (IL-6; Table 3, R^1 series)
1 | O=C(CSc1nc2c([nH]c3ccccc32)c(=O)n1-c1ccccc1)NC1CCCCC1 [Compound 1] | 100 | 100 | 100 | 100 | 100 | 100 | 100 | 100 | 100 | 100 | 100 | 100 | 100 | 100 | 100
2 | O=C(CSc1nc2c([nH]c3ccccc32)c(=O)n1-c1ccccc1)NC1CCCCCC1 [Compound 9] | – | 118 | – | – | 99 | – | – | 100 | – | – | 107 | – | – | 126 | –
3 | O=C(CSc1nc2c([nH]c3ccccc32)c(=O)n1-c1ccccc1)NC1CCCCCCC1 [Compound 10] | – | 73 | – | – | 95 | – | – | 64 | – | – | 98 | – | – | 114 | –
4 | O=C(CSc1nc2c([nH]c3ccccc32)c(=O)n1-c1ccccc1)NC1CCCC1 [Compound 11] | – | 5 | – | – | 28 | – | – | 23 | – | – | 52 | – | – | 53 | –
5 | O=C(CSc1nc2c([nH]c3ccccc32)c(=O)n1-c1ccccc1)NC1CCC1 [Compound 12] | – | 19 | – | – | 18 | – | – | 32 | – | – | 66 | – | – | 35 | –
6 | O=C(CSc1nc2c([nH]c3ccccc32)c(=O)n1-c1ccccc1)Nc1ccccc1 [Compound 13] | – | 15 | – | – | 21 | – | – | 31 | – | – | 44 | – | – | 11 | –
7 | O=C(CSc1nc2c([nH]c3ccccc32)c(=O)n1-c1ccccc1)Nc1ccc(F)cc1 [Compound 14] | – | 107 | – | – | 81 | – | – | 108 | – | – | 70 | – | – | 103 | –
8 | O=C(CSc1nc2c([nH]c3ccccc32)c(=O)n1-c1ccccc1)Nc1ccccc1F [Compound 15] | – | 61 | – | – | 43 | – | – | 71 | – | – | 54 | – | – | 36 | –
9 | O=C(CSc1nc2c([nH]c3ccccc32)c(=O)n1-c1ccccc1)Nc1cccc(F)c1 [Compound 16] | – | 13 | – | – | 11 | – | – | 39 | – | – | 45 | – | – | 14 | –
10 | Cc1cccc(NC(=O)CSc2nc3c([nH]c4ccccc43)c(=O)n2-c2ccccc2)c1 [Compound 17] | – | 54 | – | – | 13 | – | – | 116 | – | – | 55 | – | – | 19 | –
11 | O=C(CSc1nc2c([nH]c3ccccc32)c(=O)n1-c1ccccc1)Nc1ccc2ccccc2c1 [Compound 18] | – | <1 | – | – | 2 | – | – | 21 | – | – | <1 | – | – | <1 | –
12 | O=C(CSc1nc2c([nH]c3ccccc32)c(=O)n1-c1ccccc1)NCc1ccco1 [Compound 19] | – | 15 | – | – | 5 | – | – | 27 | – | – | 26 | – | – | 18 | –
13 | O=C(CSc1nc2c([nH]c3ccccc32)c(=O)n1-c1ccccc1)Nc1ccc2cn[nH]c2c1 [Compound 20] | – | 7 | – | – | <1 | – | – | <1 | – | – | <1 | – | – | 3 | –
14 | O=C(CSc1nc2c([nH]c3ccccc32)c(=O)n1-c1ccccc1)Nc1nccs1 [Compound 21] | – | 5 | – | – | 2 | – | – | 12 | – | – | <1 | – | – | 1 | –
15 | CCNC(=O)CSc1nc2c([nH]c3ccccc32)c(=O)n1-c1ccccc1 [Compound 22] | – | 4 | – | – | <1 | – | – | 8 | – | – | <1 | – | – | <1 | –
16 | CCCCCCNC(=O)CSc1nc2c([nH]c3ccccc32)c(=O)n1-c1ccccc1 [Compound 25] | – | 7 | – | – | 4 | – | – | 8 | – | – | <1 | – | – | <1 | –

Row | Compound | human IL-8 (IL-8; Table 1, R^3 series) | human IL-8 (IL-8; Table 2, R^2 series) | human IL-8 (IL-8; Table 3, R^1 series) | mouse TLR4 (TLR4 [1]; Table 1, R^3 series) | mouse TLR4 (TLR4 [1]; Table 2, R^2 series) | mouse TLR4 (TLR4 [1]; Table 3, R^1 series) | human TLR4 (TLR4 [2]; Table 1, R^3 series) | human TLR4 (TLR4 [2]; Table 2, R^2 series) | human TLR4 (TLR4 [2]; Table 3, R^1 series) | mouse IP-10 (IP-10; Table 1, R^3 series) | mouse IP-10 (IP-10; Table 2, R^2 series) | mouse IP-10 (IP-10; Table 3, R^1 series) | mouse IL-6 (IL-6; [3]) | mouse IL-6 (IL-6; Table 2, R^2 series) | mouse IL-6 (IL-6; Table 3, R^1 series)
17 | CC(C)CNC(=O)CSc1nc2c([nH]c3ccccc32)c(=O)n1-c1ccccc1 [Compound 26] | – | 11 | – | – | 24 | – | – | 21 | – | – | 53 | – | – | 44 | –
18 | CC(C)CCNC(=O)CSc1nc2c([nH]c3ccccc32)c(=O)n1-c1ccccc1 [Compound 27] | – | 53 | – | – | 56 | – | – | 38 | – | – | 62 | – | – | 61 | –
19 | CC(C)(C)CCNC(=O)CSc1nc2c([nH]c3ccccc32)c(=O)n1-c1ccccc1 [Compound 28] | – | 95 | – | – | 126 | – | – | 72 | – | – | 85 | – | – | 99 | –
20 | CCC(C)CCNC(=O)CSc1nc2c([nH]c3ccccc32)c(=O)n1-c1ccccc1 (centres unmarked) [Compound 29] | – | 23 | – | – | 29 | – | – | 17 | – | – | 45 | – | – | 30 | –
21 | CCCC(C)NC(=O)CSc1nc2c([nH]c3ccccc32)c(=O)n1-c1ccccc1 (centres unmarked) [Compound 30] | – | 6 | – | – | 17 | – | – | 13 | – | – | 55 | – | – | 12 | –
22 | CCC(CC)NC(=O)CSc1nc2c([nH]c3ccccc32)c(=O)n1-c1ccccc1 [Compound 31] | – | <1 | – | – | 8 | – | – | 11 | – | – | 26 | – | – | 10 | –
23 | O=C(CSc1nc2c([nH]c3ccccc32)c(=O)n1-c1ccccc1)NCC1CCCO1 (centres unmarked) [Compound 33] | – | 8 | – | – | 21 | – | – | 13 | – | – | 54 | – | – | 23 | –
24 | O=C(CSc1nc2c([nH]c3ccccc32)c(=O)n1C1CCCCC1)NC1CCCCC1 [Compound 36] | – | – | 27 | – | – | 56 | – | – | 40 | – | – | 61 | – | – | 71
25 | O=C(CSc1nc2c([nH]c3ccccc32)c(=O)n1-c1ccc(F)cc1)NC1CCCCC1 [Compound 37] | – | – | 5 | – | – | 41 | – | – | 51 | – | – | 72 | – | – | 48
26 | Cc1ccc(-n2c(SCC(=O)NC3CCCCC3)nc3c([nH]c4ccccc43)c2=O)cc1 [Compound 38] | – | – | 6 | – | – | 2 | – | – | 2 | – | – | <1 | – | – | <1
27 | O=C(CSc1nc2c([nH]c3ccccc32)c(=O)n1-c1ccc2ccccc2c1)NC1CCCCC1 [Compound 39] | – | – | <1 | – | – | 6 | – | – | 3 | – | – | <1 | – | – | 3
28 | O=C(CSc1nc2c([nH]c3ccccc32)c(=O)n1CCc1ccccc1)NC1CCCCC1 [Compound 40] | – | – | 5 | – | – | 1 | – | – | 1 | – | – | <1 | – | – | <1
29 | Cn1c2ccccc2c2nc(SCC(=O)NC3CCCCC3)n(-c3ccccc3)c(=O)c21 [Compound 42] | 79 | – | – | 100 | – | – | 92 | – | – | 99 | – | – | 101 | – | –
30 | CCCCCn1c2ccccc2c2nc(SCC(=O)NC3CCCCC3)n(-c3ccccc3)c(=O)c21 [Compound 49] | 1 | – | – | 6 | – | – | 11 | – | – | <1 | – | – | 5 | – | –
31 | CCCCCCCCCCCCn1c2ccccc2c2nc(SCC(=O)NC3CCCCC3)n(-c3ccccc3)c(=O)c21 [Compound 50] | <1 | – | – | 4 | – | – | 10 | – | – | <1 | – | – | <1 | – | –
32 | N#CCn1c2ccccc2c2nc(SCC(=O)NC3CCCCC3)n(-c3ccccc3)c(=O)c21 [Compound 51] | 30 | – | – | 55 | – | – | 19 | – | – | 64 | – | – | 98 | – | –
